Counter-ions that a name gives are not always drawn.
Biological target: T1, human β-Secretase (Homo sapiens, UniProt P56817)
T1 construct: soluble part of the human β-Secretase (AA 1-AA 460); Fc domain of IgG1 (C); made in house
Test: TR-FRET assay
Type: biochemical
Conditions: sBACE-Fc, substrate (Europium)CEVNLDAEFK(Qsy7) 100 nM, pH4.5, unit not in table
Method: The β-secretase enzyme used in the TR-FRET is prepared as follows:
The cDNA for the soluble part of the human β-Secretase (AA 1-AA 460) was cloned using the ASP2-Fc10-1-IRES-GFP-neoK mammalian expression vector. The gene was fused to the Fc domain of IgG1 (affinity tag) and stably cloned into HEK 293 cells.
The enzyme (truncated form) was diluted to 6 μg/mL (stock 1.3 mg/mL) and the substrate (Europium)CEVNLDAEFK(Qsy7) to 200 nM (stock 120 μM) in reaction buffer (NaAcetate, chaps, triton x-100, EDTA pH4.5). The robotic systems Biomek FX and Velocity 11 were used for all liquid handling and the enzyme and substrate solutions were kept on ice until they were placed in the robotic system. Enzyme (9 μl) was added to the plate then 1 μl of compound in dimethylsulphoxide was added, mixed and pre-incubated for 10 minutes. Substrate (10 μl) was then added, mixed and the reaction proceeded for 15 minutes at room temperature. The reaction was stopped with the addition of Stop solution (7 μl, NaAcetate, pH 9). The fluorescence of the product was measured on a Victor II plate reader with an excitation wavelength of 340 nm and an emission wavelength of 615 nm. The assay was performed in a Costar 384 well round bottom, low volume, non-binding surface plate (Corning #3676). […] The dimethylsulphoxide control, instead of test compound, defined the 100% activity level and 0% activity was defined by wells lacking enzyme (replaced with reaction buffer).

T1 sequence (P56817 22-460): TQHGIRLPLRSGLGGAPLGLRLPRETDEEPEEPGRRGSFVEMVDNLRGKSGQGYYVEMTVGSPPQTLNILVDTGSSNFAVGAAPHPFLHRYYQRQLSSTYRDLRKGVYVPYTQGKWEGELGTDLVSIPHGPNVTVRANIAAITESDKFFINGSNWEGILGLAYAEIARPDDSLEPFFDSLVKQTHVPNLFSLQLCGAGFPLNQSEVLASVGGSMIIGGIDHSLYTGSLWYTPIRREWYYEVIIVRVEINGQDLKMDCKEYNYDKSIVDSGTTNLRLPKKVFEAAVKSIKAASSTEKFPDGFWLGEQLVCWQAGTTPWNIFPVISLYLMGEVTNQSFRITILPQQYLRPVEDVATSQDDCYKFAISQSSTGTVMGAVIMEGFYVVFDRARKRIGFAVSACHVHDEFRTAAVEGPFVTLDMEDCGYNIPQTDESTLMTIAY

| Structure (SMILES) | IC50 [nM] |
| --- | --- |
| NC1=NC(c2cccc(OCC3CCC3)c2)(c2ccnc(C(F)(F)F)c2)c2cccnc21 (stereo not drawn) [Example 7, 5-(3-(Cyclobutylmethoxy)phenyl)-5-(2-(trifluoromethyl)pyridin-4-yl)-5H-pyrrolo[3,4-b]pyridin-7-amine] | 1200 |
| COc1ccc(C2(c3cccc(OCCCF)c3)N=C(N)c3ncccc32)cc1Cl (stereo not drawn) [Example 20, 5-(3-Chloro-4-methoxyphenyl)-5-(3-(3-fluoropropoxy)phenyl)-5H-pyrrolo[3,4-b]pyridin-7-amine] | 779 |
| Cc1cc(C2(c3cccc(OCCCF)c3)N=C(N)c3ncccc32)cc(OC(F)F)n1 (stereo not drawn) [Example 19, 5-(2-(Difluoromethoxy)-6-methylpyridin-4-yl)-5-(3-(3-fluoropropoxy)phenyl)-5H-pyrrolo[3,4-b]pyridin-7-amine] | 909 |
| NC1=NC(c2cccc(OCCC(F)F)c2)(c2ccnc(C(F)(F)F)c2)c2cccnc21 (stereo not drawn) [Example 21, 5-(3-(3,3-Difluoropropoxy)phenyl)-5-(2-(trifluoromethyl)pyridin-4-yl)-5H-pyrrolo[3,4-b]pyridin-7-amine trifluoroacetic acid salt] | 1150 |
| NC1=NC(c2cccc(OCCCF)c2)(c2ccnc(OC(F)F)c2)c2cccnc21 (stereo not drawn) [Example 23, 5-(2-(Difluoromethoxy)pyridin-4-yl)-5-(3-(3-fluoropropoxy)phenyl)-5H-pyrrolo[3,4-b]pyridin-7-amine 1.67 acetic acid] | 2620 |
| NC1=NC(c2ccncc2)(c2cccc(OCC3CC3(F)F)c2)c2cccnc21 (stereo not drawn) [Example 5, 5-(3-((2,2-Difluorocyclopropyl)methoxy)phenyl)-5-(pyridin-4-yl)-5H-pyrrolo[3,4-b]pyridin-7-amine] | 2300 |
| NC1=NC(c2ccncc2)(c2cccc(OCC3CCC3)c2)c2cccnc21 (stereo not drawn) [Example 4, 5-(3-(Cyclobutylmethoxy)phenyl)-5-(pyridin-4-yl)-5H-pyrrolo[3,4-b]pyridin-7-amine] | 2700 |
| Cc1cc(C2(c3cccc(OCCCF)c3)N=C(N)c3ncccc32)ccn1 (stereo not drawn) [Example 13, 5-(3-(3-Fluoropropoxy)phenyl)-5-(2-methylpyridin-4-yl)-5H-pyrrolo[3,4-b]pyridin-7-amine] | 2700 |
| NC1=NC(c2ccncc2)(c2cccc(OCCCF)c2)c2cccnc21 (stereo not drawn) [Example 10, 5-(3-(3-Fluoropropoxy)phenyl)-5-(pyridin-4-yl)-5H-pyrrolo[3,4-b]pyridin-7-amine] | 2400 |
| COc1cccc(C2(c3ccncc3)N=C(N)c3ncccc32)c1 (stereo not drawn) [Example 9i, 5-(3-Methoxyphenyl)-5-(pyridin-4-yl)-5H-pyrrolo[3,4-b]pyridin-7-amine] | 26000 |
| CC(C)COc1cccc(C2(c3ccncc3)N=C(N)c3ncccc32)c1 (stereo not drawn) [Example 1, 5-(3-Isobutoxyphenyl)-5-(pyridin-4-yl)-5H-pyrrolo[3,4-b]pyridin-7-amine] | 640 |
| CC(C)CCOc1cccc(C2(c3ccncc3)N=C(N)c3ncccc32)c1 (stereo not drawn) [Example 2, 5-(3-(Isopentyloxy)phenyl)-5-(pyridin-4-yl)-5H-pyrrolo[3,4-b]pyridin-7-amine] | 1700 |
| COc1c(C)cc(C2(c3cccc(OCCCF)c3)N=C(N)c3ncccc32)cc1C (stereo not drawn) [Example 11, 5-(3-(3-Fluoropropoxy)phenyl)-5-(4-methoxy-3,5-dimethylphenyl)-5H-pyrrolo[3,4-b]pyridin-7-amine] | 81 |
| CC(C)COc1cccc(C2(c3ccc(OC(F)F)cc3)N=C(N)c3ncccc32)c1 (stereo not drawn) [Example 18, 5-(4-(Difluoromethoxy)phenyl)-5-(3-isobutoxyphenyl)-5H-pyrrolo[3,4-b]pyridin-7-amine] | 150 |
| NC1=NC(c2ccncc2)(c2cccc(OC3CCCC3)c2)c2cccnc21 (stereo not drawn) [Example 8, 5-(3-(Cyclopentyloxy)phenyl)-5-(pyridin-4-yl)-5H-pyrrolo[3,4-b]pyridin-7-amine] | 3000 |
| NC1=NC(c2cccc(OCCCF)c2)(c2ccnc(C(F)(F)F)c2)c2cccnc21 (stereo not drawn) [Example 6, 5-(3-(3-Fluoropropoxy)phenyl)-5-(2-(trifluoromethyl)pyridin-4-yl)-5H-pyrrolo[3,4-b]pyridin-7-amine] | 1500 |
| NC1=NC(c2ccncc2)(c2cccc(OCC3CCCC3)c2)c2cccnc21 (stereo not drawn) [Example 3, 5-(3-(Cyclopentylmethoxy)phenyl)-5-(pyridin-4-yl)-5H-pyrrolo[3,4-b]pyridin-7-amine] | 1500 |
| Cc1cc(C2(c3cccc(OCC(C)C)c3)N=C(N)c3ncccc32)cc(C)n1 (stereo not drawn) [Example 15, 5-(2,6-Dimethylpyridin-4-yl)-5-(3-isobutoxyphenyl)-5H-pyrrolo[3,4-b]pyridin-7-amine acetate] | 3800 |
| COc1c(C)cc(C2(c3cccc(OCCC(F)F)c3)N=C(N)c3ncccc32)nc1C (stereo not drawn) [Example 22, 5-(3-(3,3-Difluoropropoxy)phenyl)-5-(5-methoxy-4,6-dimethylpyridin-2-yl)-5H-pyrrolo[3,4-b]pyridin-7-amine acetic acid salt] | 337 |
| COc1ccc(C2(c3cccc(OCCCF)c3)N=C(N)c3ncccc32)cc1C(F)(F)F (stereo not drawn) [Example 14, 5-(3-(3-Fluoropropoxy)phenyl)-5-(4-methoxy-3-(trifluoromethyl)phenyl)-5H-pyrrolo[3,4-b]pyridin-7-amine] | 960 |
| CC(C)COc1cccc(C2(c3ccc(OC(F)F)nc3)N=C(N)c3ncccc32)c1 (stereo not drawn) [Example 17, acetate] | 1300 |
| COc1ncc(C2(c3cccc(OCC(C)C)c3)N=C(N)c3ncccc32)cc1C (stereo not drawn) [Example 16, 5-(3-Isobutoxyphenyl)-5-(6-methoxy-5-methylpyridin-3-yl)-5H-pyrrolo[3,4-b]pyridin-7-amine acetate] | 3100 |
| NC1=NC(c2ccncc2)(c2cccc(OC3CCC3)c2)c2cccnc21 (stereo not drawn) [Example 9, 5-(3-Cyclobutoxyphenyl)-5-(pyridin-4-yl)-5H-pyrrolo[3,4-b]pyridin-7-amine] | 8000 |
| COc1cc(C2(c3cccc(OCCCF)c3)N=C(N)c3ncccc32)ccn1 (stereo not drawn) [Example 12, 5-(3-(3-Fluoropropoxy)phenyl)-5-(2-methoxypyridin-4-yl)-5H-pyrrolo[3,4-b]pyridin-7-amine] | 2700 |

From patent publication US20100125087A1, “NEW COMPOUNDS 575” (AstraZeneca AB, priority 2008, published 2010)
